The values that follow are results of earlier work, collected in US10736322B2, “Aqueous concentrated herbicidal compositions containing glyphosate salts and dicamba salts” (priority 2012, dated 2020).

Structures are written as SMILES.

The conditions of this data set: 25° C.

With `O=C(O)CNCP(=O)(O)O` [Glyphosate acid, N-(phosphonomethyl)glycine], the solubility in water is 1.16 wt. %.
